Assay results: BindingDB's records for doi:10.7270/Q2ZP44H3 (Vanderbilt Screening Center For Gpcrs, Ion Channels and …, 2009)

Target: T1, Solute carrier family 12 member 5 (Homo sapiens, UniProt Q9H2X9)
T1 sequence (Q9H2X9 whole entry): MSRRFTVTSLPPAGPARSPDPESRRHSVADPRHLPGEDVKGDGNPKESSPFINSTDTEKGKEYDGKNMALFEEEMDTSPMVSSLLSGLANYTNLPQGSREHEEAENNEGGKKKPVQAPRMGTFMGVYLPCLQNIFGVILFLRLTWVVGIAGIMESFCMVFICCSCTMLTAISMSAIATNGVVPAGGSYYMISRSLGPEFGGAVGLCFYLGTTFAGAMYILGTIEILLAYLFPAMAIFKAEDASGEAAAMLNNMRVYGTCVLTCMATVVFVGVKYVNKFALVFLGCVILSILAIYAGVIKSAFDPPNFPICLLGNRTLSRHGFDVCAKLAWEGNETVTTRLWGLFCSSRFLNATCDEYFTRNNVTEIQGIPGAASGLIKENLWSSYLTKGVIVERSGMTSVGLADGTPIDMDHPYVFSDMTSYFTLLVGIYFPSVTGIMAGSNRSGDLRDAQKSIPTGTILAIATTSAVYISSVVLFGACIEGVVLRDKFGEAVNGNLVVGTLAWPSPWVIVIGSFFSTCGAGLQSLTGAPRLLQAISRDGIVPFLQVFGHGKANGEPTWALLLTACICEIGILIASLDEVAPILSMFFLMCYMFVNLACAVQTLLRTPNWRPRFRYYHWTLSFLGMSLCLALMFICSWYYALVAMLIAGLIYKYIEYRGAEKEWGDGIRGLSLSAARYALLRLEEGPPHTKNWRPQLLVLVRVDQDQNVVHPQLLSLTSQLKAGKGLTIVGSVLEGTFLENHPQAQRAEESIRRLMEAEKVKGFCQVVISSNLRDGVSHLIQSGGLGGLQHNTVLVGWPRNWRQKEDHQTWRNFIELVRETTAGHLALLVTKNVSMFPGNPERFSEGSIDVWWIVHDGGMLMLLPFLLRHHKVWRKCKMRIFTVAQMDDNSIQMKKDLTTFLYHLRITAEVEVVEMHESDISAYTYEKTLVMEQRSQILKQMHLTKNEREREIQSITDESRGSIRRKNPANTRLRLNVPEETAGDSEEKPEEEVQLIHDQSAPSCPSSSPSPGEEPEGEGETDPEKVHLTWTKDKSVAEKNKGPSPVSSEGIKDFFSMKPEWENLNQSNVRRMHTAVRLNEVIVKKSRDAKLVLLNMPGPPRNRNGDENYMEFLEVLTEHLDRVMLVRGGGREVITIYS
Experiment: KCC2 and NKCC1 inhibition by rubidium flux, cell-based, NKCC1 counter-screen (AID 1734)

Q: `CCOc1ccc(-n2c(O)c3c(c2O)C(C=Cc2ccccc2)c2sc(=O)[nH]c2S3)cc1` (stereo unspecified) was tested. Which IC50 did it give?
A: 0.3 µM
